target: GLP-1 Receptor (Homo sapiens, UniProt P43220); assay: GLP-1R agonist cAMP stimulation assay (HEK293/GLP1R/CRE-Luc cells, HTRF cAMP); format: cell-based; settings: 30 min, 37° C.
Protocol: Activation of GLP-1 receptor is known to stimulate cyclic AMP (cAMP) production in cells which indicates primary coupling to the Gαs subunit of the G protein heterotrimeric complex.
To optimize functional activity directed toward Gαs coupling, a HEK293/CRE-Luc cell line developed by HDB stably expressing the GLP-1 Receptor was used. […] 1×10^5 cells/mL HEK293/GLP1R/CRE-LUC(HD Biosciences) cell suspensions prepared with assay buffer[DPBS containing 0.5 mM IBMX (Sigma, Cat #I5879) and 0.1% BSA (GENVIEW, Cat #FA016-100g)], 10 uL cell suspensions were added to each well of previous generated assay plate which already contains 50 nl compound at 200×concentration using ThermoFisher Multidrop Combi (1000 cells/well). Seal the plate and incubate at 37° C. with 5% CO2 for 30 min.
After incubation the cAMP assay signal was generated using cAMP dynamic 2 Kit (Cisbio). 5 μL cAMP-d2 working solution was added to each well, followed with 5 μL Anti-cAMP antibody-cryptate working solution added to each well using ThermoFisher Multidrop Combi. Incubate at room temperature for 1 hour protected from light.

Chain of GLP-1 Receptor (P43220 24-463): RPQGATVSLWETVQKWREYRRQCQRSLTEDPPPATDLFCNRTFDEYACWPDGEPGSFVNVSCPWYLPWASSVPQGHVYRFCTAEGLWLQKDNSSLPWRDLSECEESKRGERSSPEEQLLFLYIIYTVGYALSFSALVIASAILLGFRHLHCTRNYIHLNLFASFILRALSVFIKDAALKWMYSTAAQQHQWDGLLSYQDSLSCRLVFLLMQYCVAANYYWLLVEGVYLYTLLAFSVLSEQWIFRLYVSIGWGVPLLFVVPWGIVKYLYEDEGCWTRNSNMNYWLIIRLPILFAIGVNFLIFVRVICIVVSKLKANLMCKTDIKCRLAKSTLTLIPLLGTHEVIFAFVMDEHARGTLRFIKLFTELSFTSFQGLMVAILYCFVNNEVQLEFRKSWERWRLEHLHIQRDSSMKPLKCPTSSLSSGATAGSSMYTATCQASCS

Row | SMILES | GLP1R cAMP Stimulation DR: pEC50
1 | CC(=O)Nc1ccc2nc(CN3CCC(Oc4cccc(Cc5ccc(Cl)cc5F)n4)CC3)n(C[C@@H]3CCO3)c2c1 [Compound 134a, N-(2-{[4-({6-[(4-chloro-2-fluorophenyl)methyl]pyridin-2-yl}oxy)piperidin-1-yl]methyl}-1-{[(2S)-oxetan-2-yl]methyl}-1H-1,3-benzodiazol-6-yl)acetamide] | 7.2
2 | O=C(O)c1ccc2nc(CC3CCN(C(=O)c4cccc(Cc5ccc(Cl)cc5F)n4)CC3)n(C[C@@H]3CCO3)c2n1 [Compound 106a, (S)-2-((1-(6-(4-Chloro-2-fluorobenzyl)picolinoyl)piperidin-4-yl)methyl)-3-(oxetan-2-ylmethyl)-3H-imidazo[4,5-b]pyridine-5-carboxylic acid] | 6.33
3 | O=C(O)c1ccc2nc(CN3CCC(C(F)(F)c4cccc(Cc5ccc(Cl)cc5F)n4)CC3)n(C[C@@H]3CCO3)c2n1 [Compound 173a, 2-{[4-({6-[(4-chloro-2-fluorophenyl)methyl]pyridin-2-yl}difluoromethyl)piperidin-1-yl]methyl}-3-{[(2S)-oxetan-2-yl]methyl}-3H-imidazo[4,5-b]pyridine-5-carboxylic acid] | 8.4

same assay, conditions: HEK293/CRE-Luc cells stably expressing GLP-1 Receptor; 30 min, 37° C.

Row | SMILES | GLP1R cAMP Stimulation DR: pEC50
4 | O=C(O)c1ccc2nc(CN3CCC(Oc4ccn(Cc5ccc(Cl)cc5F)n4)CC3)n(C[C@@H]3CCO3)c2c1 [Compound 116a, 2-{[4-({1-[(4-chloro-2-fluorophenyl)methyl]-1H-pyrazol-3-yl}oxy)piperidin-1-yl]methyl}-1-{[(2S)-oxetan-2-yl]methyl}-1H-1,3-benzodiazole-6-carboxylic acid] | 8.6
5 | N#Cc1ccc(Cc2cccc(OC3CCN(Cc4nc5ccc(C(=O)O)cc5n4C[C@@H]4CCO4)CC3)n2)c(F)c1 [Compound 135a, 2-{[4-({6-[(4-cyano-2-fluorophenyl)methyl]pyridin-2-yl}oxy)piperidin-1-yl]methyl}-1-{[(2S)-oxetan-2-yl]methyl}-1H-1,3-benzodiazole-6-carboxylic acid] | 8.7
6 | O=C(O)c1ccc2nc(C[C@H]3CC[C@H](Oc4ccnc(Cc5ccc(Cl)cc5F)n4)CC3)n(C[C@@H]3CCO3)c2n1 [Compound 175b, 3-{[(2S)-oxetan-2-yl]methyl}-2-{[trans-4-({2-[(4-chloro-2-fluorophenyl)methyl]pyrimidin-4-yl}oxy)cyclohexyl]methyl}-3H-imidazo[4,5-b]pyridine-5-carboxylic acid] | 10.2
7 | O=C(O)c1ccc2nc(Cc3ccc(Oc4nc(Cc5ccc(Cl)cc5)ncc4F)cc3)n(C[C@@H]3CCO3)c2n1 [Compound 189a, 2-{[4-({2-[(4-chlorophenyl)methyl]-5-fluoropyrimidin-4-yl}oxy)phenyl]methyl}-3-{[(2S)-oxetan-2-yl]methyl}-3H-imidazo[4,5-b]pyridine-5-carboxylic acid] | 9.2
8 | O=C(O)c1ccc2nc(CN3CCC(Oc4ccnc(Cc5ccc(Cl)cc5F)n4)C(F)(F)C3)n(C[C@@H]3CCO3)c2n1 (stereo partly drawn) [Compound 168a, 2-{[4-({2-[(4-chloro-2-fluorophenyl)methyl]pyrimidin-4-yl}oxy)-3,3-difluoropiperidin-1-yl]methyl}-3-{[(2S)-oxetan-2-yl]methyl}-3H-imidazo[4,5-b]pyridine-5-carboxylic acid] | 8.9
9 | O=C(O)c1ccc2nc(CN3CCC(Oc4ccnc(Cc5ccc(Cl)cc5)n4)CC3)n(C[C@H]3CCOC3)c2n1 [Compound 196a, (R)-2-((4-((2-(4-chlorobenzyl)pyrimidin-4-yl)oxy)piperidin-1-yl)methyl)-3-((tetrahydrofuran-3-yl)methyl)-3H-imidazo[4,5-b]pyridine-5-carboxylic acid] | 8.9
10 | NC(=O)c1ccc2nc(CN3CCC(Oc4ccnc(Cc5ccc(Cl)cc5)n4)CC3)n(C[C@@H]3CCO3)c2n1 [Compound 200a, (S)-2-((4-((2-(4-chlorobenzyl)pyrimidin-4-yl)oxy)piperidin-1-yl)methyl)-3-(oxetan-2-ylmethyl)-3H-imidazo[4,5-b]pyridine-5-carboxamide] | 7.1
11 | O=C(O)c1ccc2nc(CN3CCC(Oc4ccnc(Cc5ccc(F)cc5F)n4)CC3)n(C[C@@H]3CCO3)c2n1 [Compound 165a, 2-{[4-({2-[(2,4-difluorophenyl)methyl]pyrimidin-4-yl}oxy)piperidin-1-yl]methyl}-3-{[(2S)-oxetan-2-yl]methyl}-3H-imidazo[4,5-b]pyridine-5-carboxylic acid] | 9.4
12 | O=C(O)c1ccc2nc(CN3CCC(Oc4cccc(Cc5ccc(C(F)(F)F)cc5)n4)CC3)n(C[C@@H]3CCO3)c2n1 [Compound 145a, 3-{[(2S)-oxetan-2-yl]methyl}-2-({4-[(6-{[4-(trifluoromethyl)phenyl]methyl}pyridin-2-yl)oxy]piperidin-1-yl}methyl)-3H-imidazo[4,5-b]pyridine-5-carboxylic acid] | 8.5
13 | O=C(O)c1ccc2nc(C[C@H]3CC[C@@H](Oc4ccnc(Cc5ccc(Cl)cc5F)n4)CC3)n(C[C@@H]3CCO3)c2n1 [Compound 175a, 3-{[(2S)-oxetan-2-yl]methyl}-2-{[cis-4-({2-[(4-chloro-2-fluorophenyl)methyl]pyrimidin-4-yl}oxy)cyclohexyl]methyl}-3H-imidazo[4,5-b]pyridine-5-carboxylic acid] | 6.6
14 | O=C(O)c1ccc2nc(CN3CCC(Oc4ccnc(Cc5ccc(Cl)c(Cl)c5)n4)CC3)n(C[C@@H]3CCO3)c2n1 [Compound 167a, 2-{[4-({2-[(3,4-dichlorophenyl)methyl]pyrimidin-4-yl}oxy)piperidin-1-yl]methyl}-3-{[(2S)-oxetan-2-yl]methyl}-3H-imidazo[4,5-b]pyridine-5-carboxylic acid] | 9.9

The remaining lines, values ahead:

Row | GLP1R cAMP Stimulation DR: pEC50 | SMILES
15 | 8.2 | O=C(O)c1ccc2nc(CN3CCC(Cc4cccc(Oc5ccc(Cl)cc5F)n4)CC3)n(C[C@@H]3CCO3)c2n1 [Compound 121a, 2-[(4-{[6-(4-chloro-2-fluorophenoxy)pyridin-2-yl]methyl}piperidin-1-yl)methyl]-3-{[(2S)-oxetan-2-yl]methyl}-3H-imidazo[4,5-b]pyridine-5-carboxylic acid]
16 | 8.8 | O=C(O)c1ccc2nc(CN3CCC(c4cccc5cn(Cc6ccc(Cl)cc6F)nc45)CC3)n(C[C@@H]3CCO3)c2n1 [Compound 142a, (S)-2-((4-(2-(4-chloro-2-fluorobenzyl)-2H-indazol-7-yl)piperidin-1-yl)methyl)-3-(oxetan-2-ylmethyl)-3H-imidazo[4,5-b]pyridine-5-carboxylic acid]
17 | 9.5 | O=C(O)c1ccc2nc(CN3CCC(Oc4nc(Cc5ccc(Cl)cc5F)ccc4F)CC3)n(C[C@@H]3CCO3)c2n1 [Compound 111a, 2-{[4-({6-[(4-chloro-2-fluorophenyl)methyl]-3-fluoropyridin-2-yl}oxy)piperidin-1-yl]methyl}-3-{[(2S)-oxetan-2-yl]methyl}-3H-imidazo[4,5-b]pyridine-5-carboxylic acid]
18 | 8.3 | O=C(O)c1ccc2nc(CN3CCC(Oc4cccc(Cn5ccc(Cl)cc5=O)n4)CC3)n(C[C@@H]3CCO3)c2n1 [Compound 149a, 2-{[4-({6-[(4-chloro-2-oxo-1,2-dihydropyridin-1-yl)methyl]pyridin-2-yl}oxy)piperidin-1-yl]methyl}-3-{[(2S)-oxetan-2-yl]methyl}-3H-imidazo[4,5-b]pyridine-5-carboxylic acid]
19 | 8.9 | O=C(O)c1ccc2nc(CN3CCC(Oc4cccc(Cc5cccc(Cl)c5)n4)CC3)n(C[C@@H]3CCO3)c2n1 [Compound 125a, (S)-2-((4-((6-(3-chlorobenzyl)pyridin-2-yl)oxy)piperidin-1-yl)methyl)-3-(oxetan-2-ylmethyl)-3H-imidazo[4,5-b]pyridine-5-carboxylic acid]
20 | 7.2 | O=C(O)c1ccc2nc(CN3CCC(Oc4ccc(F)c(Cc5ccc(Cl)cc5F)n4)CC3)n(C[C@@H]3CCO3)c2n1 [Compound 150a, (S)-2-((4-((6-(4-chloro-2-fluorobenzyl)-5-fluoropyridin-2-yl)oxy)piperidin-1-yl)methyl)-3-(oxetan-2-ylmethyl)-3H-imidazo[4,5-b]pyridine-5-carboxylic acid]
21 | 8.3 | O=C(O)c1ccc2nc(CN3CCC(Oc4ccc(=O)n(Cc5ccc(Cl)cc5F)n4)CC3)n(C[C@@H]3CCO3)c2n1 [Compound 144a, 2-{[4-({1-[(4-chloro-2-fluorophenyl)methyl]-6-oxo-1,6-dihydropyridazin-3-yl}oxy)piperidin-1-yl]methyl}-3-{[(2S)-oxetan-2-yl]methyl}-3H-imidazo[4,5-b]pyridine-5-carboxylic acid]
22 | 10.4 | O=C(O)c1ccc2nc(CN3CCC(Oc4cccc(Cc5ccc(Cl)cc5)n4)CC3)n(C[C@@H]3CCO3)c2n1 [Compound 124a, (S)-2-((4-((6-(4-chlorobenzyl)pyridin-2-yl)oxy)piperidin-1-yl)methyl)-3-(oxetan-2-ylmethyl)-3H-imidazo[4,5-b]pyridine-5-carboxylic acid]
23 | 7.6 | Cc1cc(Cc2ccc(Cl)cc2)nc(OC2CCN(Cc3nc4ccc(C(=O)O)nc4n3C[C@@H]3CCO3)CC2)c1 [Compound 154a, 2-{[4-({6-[(4-chlorophenyl)methyl]-4-methylpyridin-2-yl}oxy)piperidin-1-yl]methyl}-3-{[(2S)-oxetan-2-yl]methyl}-3H-imidazo[4,5-b]pyridine-5-carboxylic acid]

same assay, conditions: HEK293/CRE-Luc cells stably expressing GLP-1 Receptor; 30 min, 37° C.; read-out: GLP1R cAMP Stimulation DR: EC50

Row | EC50 [nM] | SMILES
24 | 0.4 | O=C(O)c1ccc2nc(CN3CCC(Oc4ccnc(Cc5ccc(F)cc5F)n4)CC3)n(C[C@@H]3CCO3)c2n1 [Compound 165a, 2-{[4-({2-[(2,4-difluorophenyl)methyl]pyrimidin-4-yl}oxy)piperidin-1-yl]methyl}-3-{[(2S)-oxetan-2-yl]methyl}-3H-imidazo[4,5-b]pyridine-5-carboxylic acid]
